Measurements as given in patent US20060142354A1, “Use of epothilone derivatives for the treatment of hyperparathyroidism” (priority 2002, published 2006).

Columns and labels:
Assay type in all cases: cell-based, human
[1] = test system: Renal cell carcinoma tumor disks; test: in vitro angiogenesis assay, tumor disks in fibrin-thrombin clot
Excerpt: (§1) It is submitted that at least part of the effect observed with the compounds of formula I on the diseases mentioned herein are resulting from the inhibition of angiogenesis. […] It is known that human vein disks incorporated into a 0.3% fibrin-thrombin clot will develop angiogenic vessel growth from the cut edge of the vessel disk.
(§2) METHODS: Tumor disks (2 mm in diameter) from seven fresh surgical specimens are incorporated into fibrin-thrombin clots overlayed with nutrient medium containing 20% fetal bovine serum. The fragments are allowed to become angiogenic and on day 18, nutrient medium or nutrient medium containing a compound of formula I, is added. Tumor disks are visually assessed over time to determine the percent of wells that initiated an angiogenic response (% I). Neovessel growth, density, and length are graded at intervals using a semi-quantitative visual neovessel growth-rating scheme [angiogenic index (AI), 0-16 scale]. Statistical significance of the results is tested using comparison of two proportions for % initiation and t-tests for the angiogenic index (p<0.05 considered significant*).

[2] = test system: Thymic carcinoid tumor disks; test: as above
Excerpt: as §1, §2

[3] = test system: Breast carcinoma tumor disks; test: as above
Excerpt: as §1, §2

[4] = test system: Midgut carcinoid tumor disks; test: as above
Excerpt: as §1, §2

[5] = test system: Thyroid cancer tumor disks; test: as above; conditions: Thyroid cancer (identified as a parathyroid adenoma)
Excerpt: as §1, §2

[6] = test system: Bronchial carcinoid tumor disks; test: as above
Excerpt: as §1, §2

[7] = test system: Midgut carcinoid (met) tumor disks; test: as above
Excerpt: as §1, §2

[8] = test system: Tumor disks from seven fresh surgical specimens; test: in vitro angiogenesis assay, mean over all tumors; conditions: Mean +/− SEM of seven tumors; for % Initiation % ↓ / Al (0-16) % ↓: 10^−8 M, decrease vs control
Excerpt: as §1, §2

[9] = percent of wells that initiated an angiogenic response

C/C(=C\c1csc(C)n1)[C@@H]1C[C@@H]2O[C@]2(C)CCC[C@H](C)[C@H](O)[C@@H](C)C(=O)C(C)(C)[C@@H](O)CC(=O)O1 [epothilone B]
% Initiation % ↓ ([1]; 10^−8 M, decrease vs control): 88%
Al (0-16) % ↓ ([1]; 10^−8 M, decrease vs control): 80%
Al (0-16) EpoB 10^−8 M ([1]; angiogenic index, 0-16 scale): 1
% Initiation EpoB 10^−8 M [1, 9]: 6.7%
% Initiation % ↓ ([2]; 10^−8 M, decrease vs control): 40%
Al (0-16) % ↓ ([2]; 10^−8 M, decrease vs control): 73%
Al (0-16) EpoB 10^−8 M ([2]; angiogenic index, 0-16 scale): 2.5
% Initiation EpoB 10^−8 M [2, 9]: 3.3%
% Initiation % ↓ ([3]; 10^−8 M, decrease vs control): 94%
Al (0-16) % ↓ ([3]; 10^−8 M, decrease vs control): 91%
Al (0-16) EpoB 10^−8 M ([3]; angiogenic index, 0-16 scale): 1
% Initiation EpoB 10^−8 M [3, 9]: 3.3%
% Initiation % ↓ ([4]; 10^−8 M, decrease vs control): 15%
Al (0-16) % ↓ ([4]; 10^−8 M, decrease vs control): 40%
Al (0-16) EpoB 10^−8 M ([4]; angiogenic index, 0-16 scale): 8.2
% Initiation EpoB 10^−8 M [4, 9]: 20%
Al (0-16) EpoB 10^−8 M ([5]; angiogenic index, 0-16 scale): 2.1
% Initiation EpoB 10^−8 M [5, 9]: 50%
% Initiation % ↓ ([5]; 10^−8 M, decrease vs control): 50%
Al (0-16) % ↓ ([5]; 10^−8 M, decrease vs control): 85%
% Initiation % ↓ ([6]; 10^−8 M, decrease vs control): 12%
Al (0-16) % ↓ ([6]; 10^−8 M, decrease vs control): 40%
Al (0-16) EpoB 10^−8 M ([6]; angiogenic index, 0-16 scale): 6.1
% Initiation EpoB 10^−8 M [6, 9]: 37%
% Initiation % ↓ ([7]; 10^−8 M, decrease vs control): 100%
Al (0-16) % ↓ ([7]; 10^−8 M, decrease vs control): 100%
Al (0-16) EpoB 10^−8 M ([7]; angiogenic index, 0-16 scale): 0
% Initiation EpoB 10^−8 M [7, 9]: 0%
Al (0-16) EpoB 10^−8 M ([8]; angiogenic index, 0-16 scale): 3 ± 1.1
% Initiation EpoB 10^−8 M [8, 9]: 17.2 ± 7.4%
% Initiation % ↓ [8]: 60±13.8%
Al (0-16) % ↓ [8]: 73±9%
% Initiation % ↓ ([8]; listed as EpoB): 60 ± 14%
Al (0-16) % ↓ ([8]; listed as EpoB): 73 ± 9%
